Converted amounts (≈) assume the structure as drawn. The source made the active and inactive calls. The rule behind the calls is not given here.
What was measured:
[1] = system: MG-63; experiment: Increase in lactate production in MG63 cells at 1 uM after 1 hr by ELISA; type: functional, cell-based; settings: Homo sapiens
[2] = system: Osteoblast; experiment: Increase in lactate production in primary human osteoblasts at 1 uM after 1 hr by ELISA; type: functional, cell-based
[3] = system: Osteoblast; experiment: Blocking of clindamycin-induced LDH release in primary human osteoblasts at 20mM by ELISA; type: functional, cell-based
[4] = system: Osteoblast; experiment: Blocking of clindamycin-induced lactate production in primary human osteoblasts at 20 mM by ELISA; type: functional, cell-based
[5] = system: Osteoblast; experiment: Antiproliferative effect against primary human osteoblasts assessed as BrdU incorporation into DNA after 48 hrs after 48 hrs below 1 uM; type: functional, cell-based
[6] = system: Osteoblast; experiment: Increase in lactate production in primary human osteoblasts above 0.25 uM by ELISA; type: functional
[7] = system: MG-63; experiment: Inhibition of metabolic activity in MG63 cells by MTT assay relative to control; type: functional, Homo sapiens
[8] = system: MG-63; experiment: Increase in lactate production in MG63 cells at 50 nM by ELISA relative to control; type: functional, Homo sapiens
[9] = system: Osteoblast; experiment: Inhibition of metabolic activity in primary human osteoblasts by MTT assay below 1 uM; type: functional, cell-based
[10] = system: Osteoblast; experiment: Increase in lactate production in primary human osteoblasts at 10 hrs by ELISA; type: functional
[11] = system: HeLa; experiment: Inhibition of metabolic activity in HeLa cells assessed as MTT reduction after 48 hrs; type: functional, cell-based; settings: Homo sapiens
[12] = system: MG-63; experiment: Inhibition of metabolic activity in MG63 cells assessed as MTT reduction after 48 hrs; type: functional, cell-based; settings: Homo sapiens, MG-63, 48 h
[13] = Cytotoxicity against primary human osteoblasts at 200 ug/ml assessed as LDH release after 24 hrs; type: cell-based; settings: osteoblast
[14] = system: MG-63; experiment: Antiproliferative effect against MG63 cells assessed as BrdU incorporation into DNA after 48 hrs after 48 hrs; type: functional, cell-based; settings: Homo sapiens, MG-63, 48 h
[15] = Cytotoxicity against primary human osteoblasts at 400 ug/ml assessed as LDH release after 24 hrs; settings: osteoblast, at 400 µg/mL
[16] = Cytotoxicity against primary human osteoblasts at 100 ug/ml assessed as LDH release after 24 hrs; type: cell-based; settings: osteoblast
[17] = Antiproliferative effect against primary human osteoblasts assessed as BrdU incorporation into DNA after 48 hrs; type: functional, cell-based; settings: Osteoblast
[18] = system: MG-63; experiment: Increase in lactate production in MG63 cells at 400 ug/ml by ELISA relative to control; type: functional, Homo sapiens
[19] = system: HeLa; experiment: Antiproliferative effect against HeLa cells after 48 hrs; type: functional, cell-based; settings: Homo sapiens
[20] = system: Osteoblast; experiment: Inhibition of metabolic activity in primary human osteoblasts assessed as MTT reduction after 48 hrs; type: functional, cell-based
[21] = system: Osteoblast; experiment: Increase in lactate production in primary human osteoblasts at 1.5 ug/ml by ELISA; type: functional
[22] = system: Osteoblast; experiment: Increase in lactate production in primary human osteoblasts at 400 ug/ml by ELISA relative to control; type: functional
[23] = system: Osteoblast; experiment: Antiproliferative effect against primary human osteoblasts in presence of 10% FCS; type: functional, cell-based
[24] = system: Osteoblast; experiment: Antiproliferative effect against primary human osteoblasts assessed as BrdU incorporation into DNA at 10 ug/ml after 48 hrs; type: functional, cell-based
[25] = system: Osteoblast; experiment: Increase in lactate production in primary human osteoblasts at 25 to 50 ug/ml by ELISA; type: functional

C=C(C)[C@H]1Cc2c(ccc3c2O[C@@H]2COc4cc(OC)c(OC)cc4[C@@H]2C3=O)O1
Activity [1]: Active
Activity [2]: Active

Nc1ncnc2c1ncn2[C@@H]1O[C@H](CO)[C@@H](O)[C@H]1O
Activity [3]: Active
Activity [4]: Active

CCCCCC[C@H]1C(=O)O[C@H](C)[C@H](NC(=O)c2cccc(NC=O)c2O)C(=O)O[C@@H](C)[C@@H]1OC(=O)CC(C)C [ANTIMYCIN A]
Activity [5]: inactive
Activity [6]: 150%
Inhibition [7]: 70%
Activity [8]: 50%
Activity [9]: inactive
Activity [10]: 14 µmol

CC[C@H]1OC(=O)[C@H](C)[C@@H](O[C@H]2C[C@@](C)(OC)[C@@H](O)[C@H](C)O2)[C@H](C)[C@@H](O[C@@H]2O[C@H](C)C[C@H](N(C)C)[C@H]2O)[C@](C)(O)C[C@@H](C)CN(C)[C@H](C)[C@@H](O)[C@]1(C)O [AZITHROMYCIN]
IC20 [11]: 50 µg/mL (≈ 66.8 µM)
IC50 [11]: 160 µg/mL (≈ 214 µM)
IC20 [12]: 70 µg/mL (≈ 93.5 µM)
IC50 [12]: 180 µg/mL (≈ 240 µM)
Activity [13]: 40%
IC20 [14]: 30 µg/mL (≈ 40.1 µM)
IC50 [14]: 190 µg/mL (≈ 254 µM)
Activity [15]: 40%
Activity [16]: 20%
IC20 [17]: 20 µg/mL (≈ 26.7 µM)
IC50 [17]: 25 µg/mL (≈ 33.4 µM)
Activity [18]: 30%
IC20 [19]: 110 µg/mL (≈ 147 µM)
IC50 [19]: 240 µg/mL (≈ 320 µM)
IC20 [20]: 80 µg/mL (≈ 107 µM)
IC50 [20]: 160 µg/mL (≈ 214 µM)

Cc1nnc(SCC2=C(C(=O)O)N3C(=O)[C@@H](NC(=O)Cn4cnnn4)[C@H]3SC2)s1 [CEFAZOLIN]
IC20 [11]: > 400 µg/mL
IC50 [11]: > 400 µg/mL
IC20 [12]: 400 µg/mL (≈ 880 µM)
IC50 [12]: > 400 µg/mL
IC20 [14]: 230 µg/mL (≈ 506 µM)
IC50 [14]: > 400 µg/mL
IC20 [17]: 380 µg/mL (≈ 836 µM)
IC50 [17]: > 400 µg/mL
IC20 [19]: 270 µg/mL (≈ 594 µM)
IC50 [19]: > 400 µg/mL
IC20 [20]: > 400 µg/mL
IC50 [20]: > 400 µg/mL

O=C(N[C@H](CO)[C@H](O)c1ccc([N+](=O)[O-])cc1)C(Cl)Cl [CHLORAMPHENICOL]
Activity [21]: 12%
IC20 [11]: 100 µg/mL (≈ 309 µM)
IC50 [11]: 340 µg/mL (≈ 1050 µM)
IC20 [12]: 110 µg/mL (≈ 340 µM)
IC50 [12]: 400 µg/mL (≈ 1240 µM)
Activity [22]: 150%
IC20 [14]: 200 µg/mL (≈ 619 µM)
IC50 [14]: > 400 µg/mL
IC20 [17]: 60 µg/mL (≈ 186 µM)
IC50 [17]: 230 µg/mL (≈ 712 µM)
Activity [23]: Active
IC20 [19]: 340 µg/mL (≈ 1050 µM)
IC50 [19]: > 400 µg/mL
IC20 [20]: 260 µg/mL (≈ 805 µM)
IC50 [20]: > 400 µg/mL

O=C(O)c1cn(C2CC2)c2cc(N3CCNCC3)c(F)cc2c1=O [CIPROFLOXACIN]
IC20 [11]: 70 µg/mL (≈ 211 µM)
IC50 [11]: 120 µg/mL (≈ 362 µM)
Activity [24]: Active
IC20 [12]: 60 µg/mL (≈ 181 µM)
IC50 [12]: 150 µg/mL (≈ 453 µM)
IC20 [14]: 80 µg/mL (≈ 241 µM)
IC50 [14]: 160 µg/mL (≈ 483 µM)
IC20 [17]: 70 µg/mL (≈ 211 µM)
IC50 [17]: 170 µg/mL (≈ 513 µM)
IC20 [19]: 100 µg/mL (≈ 302 µM)
IC50 [19]: 290 µg/mL (≈ 875 µM)
IC20 [20]: 260 µg/mL (≈ 785 µM)
IC50 [20]: > 400 µg/mL
Activity [25]: 10%
